Source: ChEMBL document CHEMBL5316330, “Design of an Ultralow Molecular Weight Heparin That Resists Heparanase Biodegradation” (J Med Chem, 2023)
pIC50: −log10 of the molar value. The source made the active and inactive calls. The calls are words filed in the database; no cut-off is given here.

Legend:
Mus musculus [1] = assay: Anticoagulant activity in C57BL/6 mouse model of non-occlusive venous thrombosis assessed as average bleeding time at 12 ug/g, sc treated for 1 hr prior to electrolytic injury and 24 hrs after injury (reference value: 81 +/- 3 mg); type: functional; details: dose 12 µg/g, time 25 hrs
Mus musculus [2] = assay: Anticoagulant activity in C57BL/6 mouse model of non-occlusive venous thrombosis assessed as average IVC weight at 12 ug/g, sc treated for 1 hr prior to electrolytic injury and 24 hrs after injury (reference value: 31.5 +/- 2.3 mg); type: functional; details: dose 12 µg/g, time 25 hrs
Coagulation factor X [3] = target: T1, Coagulation factor X (Homo sapiens, UniProt P00742); assay: Inhibition of human factor Xa using S-2765 as substrate preincubated with antithrombin for 3 mins followed by incubation with factor Xa for 2 mins and further incubated with substrate for 5 mins by absorbance based assay
T1 sequence (P00742 41-179 limits assumed): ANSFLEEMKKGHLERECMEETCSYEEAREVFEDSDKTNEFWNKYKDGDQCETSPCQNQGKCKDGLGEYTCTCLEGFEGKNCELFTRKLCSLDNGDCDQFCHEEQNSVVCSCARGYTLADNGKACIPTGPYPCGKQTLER
T1 sequence (P00742 235-488 limits assumed): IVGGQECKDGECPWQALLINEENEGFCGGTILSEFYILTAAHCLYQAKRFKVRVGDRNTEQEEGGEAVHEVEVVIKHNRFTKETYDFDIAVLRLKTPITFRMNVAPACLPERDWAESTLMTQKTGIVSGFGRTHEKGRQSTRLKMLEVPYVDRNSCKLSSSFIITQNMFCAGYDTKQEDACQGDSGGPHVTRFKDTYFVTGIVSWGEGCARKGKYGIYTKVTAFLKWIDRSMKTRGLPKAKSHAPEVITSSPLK

Coagulation factor X [4] = target: T1, Coagulation factor X; assay: Potency index, ratio of Enoxaparin IC50 to test compound IC50 for factor Xa (unknown origin) by ACTICHROME heparin assay
Mus musculus [5] = assay: Anticoagulant activity in C57BL/6 mouse model of non-occlusive venous thrombosis assessed as average IVC weight at 4 ug/g, sc treated for 4 hrs prior to electrolytic injury and 24 hrs after injury (reference value: 31.5 +/- 2.3 mg); type: functional; details: dose 4 µg/g, time 28 hrs
Mus musculus [6] = assay: Anticoagulant activity in C57BL/6 mouse model of non-occlusive venous thrombosis assessed as inhibition of factor Xa in plasma at 12 ug/g, sc treated for 1 hr prior to electrolytic injury and 24 hrs after injury; type: functional; details: dose 12 µg/g, time 25 hrs
[7] = Stability of compound assessed as heparanase-mediated compound degradation by measuring retention time at 20 ug incubated overnight by LC-MS analysis (reference value: 10 mins); type: physicochemical; details: dose 20 µg
Coagulation factor X [8] = target: T1, Coagulation factor X; assay: Inhibition of human factor Xa using S-2765 as substrate at 7 to 3600 ng/ml preincubated with antithrombin for 3 mins followed by incubation with factor Xa for 2 mins and further incubated with substrate for 5 mins by absorbance based assay; details: dose 7-3600 ng/ml, time 10.0 min
[9] = Stability of compound assessed as heparanase-mediated compound degradation by measuring retention time at 20 ug incubated overnight by LC-MS analysis (reference value: 17 mins); type: physicochemical; details: dose 20 µg

| SMILES | Activity (Mus musculus [1]) [mg] | Activity (Mus musculus [2]) [mg] | pIC50 (Coagulation factor X [3]) | fold change (FC) (Coagulation factor X [4]) | Activity (Mus musculus [5]) [mg] | Activity (Mus musculus [6]) [IU/ml] | Retention_time [7] [min] | inhibition (Coagulation factor X [8]) | Retention_time [9] [min] |
| --- | --- | --- | --- | --- | --- | --- | --- | --- | --- |
| O=C(O)[C@H]1O[C@@H](O[C@H]2[C@H](O)[C@@H](NS(=O)(=O)O)[C@@H](O[C@@H]3[C@H](O)[C@@H](OS(=O)(=O)O)[C@H](O[C@H]4[C@H](OS(=O)(=O)O)[C@@H](NS(=O)(=O)O)[C@@H](O[C@H]5[C@H](O)[C@@H](OS(=O)(=O)O)[C@H](O[C@@H]6[C@H](O)[C@@H](NS(=O)(=O)O)[C@@H](O[C@H]7[C@H](O)[C@@H](O)[C@H](Oc8ccc([N+](=O)[O-])cc8)O[C@@H]7C(=O)O)O[C@@H]6COS(=O)(=O)O)O[C@@H]5C(=O)O)O[C@@H]4COS(=O)(=O)O)O[C@H]3C(=O)O)O[C@@H]2COS(=O)(=O)O)[C@H](O)[C@@H](O)[C@@H]1O | 143 | 18.8 | 6.75 | 3 | 13.9 | 0.55 | 15 |  |  |
| O=C(O)[C@H]1O[C@@H](Oc2ccc([N+](=O)[O-])cc2)[C@H](O)[C@@H](O)[C@@H]1O[C@H]1O[C@H](COS(=O)(=O)O)[C@@H](O[C@@H]2O[C@@H](C(=O)O)[C@H](O[C@H]3O[C@H](COS(=O)(=O)O)[C@@H](O[C@@H]4O[C@H](C(=O)O)[C@@H](O[C@H]5O[C@H](COS(=O)(=O)O)[C@@H](O)[C@H](O)[C@H]5NS(=O)(=O)O)[C@H](O)[C@H]4O)[C@H](OS(=O)(=O)O)[C@H]3NS(=O)(=O)O)[C@H](O)[C@H]2OS(=O)(=O)O)[C@H](O)[C@H]1NS(=O)(=O)O |  |  |  |  |  |  |  | inactive | 22 |
